Melting point data for 77 compounds are collected here from patent publication US8895599B2, “Lipoprotein lipase-activating compositions comprising benzene derivates” (Otsuka Pharmaceutical Factory, Inc., priority 2008, dated 2014).

Consider `COc1cc(-c2cn3ccccc3n2)ccc1OCc1ccc(C)cc1` [Example 9], for which the melting point lay in the range of 155 to 157 °C. Regarding `COc1cc(-c2cn3cccc(C)c3n2)ccc1OCc1ccc(Cl)cc1` [Example 73], the melting point was in the range of 132 to 133 °C. Consider `COc1cc(-c2cn3ccccc3n2)ccc1OCC1CC1` [Example 71], for which the melting point was 121 to 123 °C.

Take `COc1cc(-c2nc3sccn3c2C)ccc1OCc1ccccc1.Cl`: the melting point was in the range of 228 to 230 °C. Regarding `COc1cc(-c2nc3ccccn3c2C)ccc1OCc1ccc(Cl)cc1` [Example 26], the melting point is 114 to 115 °C.

The compound `COc1cc(-c2cn3ccccc3n2)ccc1OCc1c(F)cccc1F` [Example 104] returned a melting point of 136 to 137 °C. Then `COc1cc(-c2cnc3ccccn23)ccc1OCc1ccc(C#N)cc1` [Example 108], with 148 to 149 °C; and `Oc1cc(-c2cn3ccccc3n2)ccc1OCc1ccc(Cl)cc1` [Example 67], with 206 to 208 °C. With `COc1cc(-c2nc3ccccn3c2C)ccc1OCc1ccccc1.Cl`, the melting point is 241 to 243 °C.

As to `COc1cc(-c2cn3cccc(C)c3n2)ccc1OCc1ccc(Br)cc1F` [Example 82], the melting point lay within 122 to 124 °C. The same measure for `COc1cc(-c2cn3cc(Br)ccc3n2)ccc1OCc1ccc(Cl)cc1` [Example 96]: 178 to 180 °C. The compound `COc1cc(-c2cn3cc(Br)ccc3n2)ccc1OCc1ccc(C#N)cc1` [Example 97] yielded a melting point of 165 to 166 °C.

Compound `COc1cc(-c2cn3ccsc3n2)ccc1OCc1ccccc1` [Example 24] registered a melting point of 130 to 132 °C. `COc1cc(-c2cn3cccnc3n2)ccc1OCc1ccc(Cl)cc1` [Example 29]: the melting point was 216 to 218 °C. On to `COc1cc(-c2cn3cc(Cl)cc(Cl)c3n2)ccc1OCc1ccccc1` [Example 52], for which the melting point was in the range of 163 to 165 °C.

Consider `CCCOc1cc(-c2cn3ccccc3n2)ccc1OCc1ccccc1` [Example 61], for which the melting point lay in the range of 126 to 127 °C.

The compound `COc1cc(-c2nc3ccccn3c2Cl)ccc1Oc1ccccc1` [Example 115] yielded a melting point of 108 to 109 °C. As for `COc1cc(-c2cn3cc(Br)c(C)c(C)c3n2)ccc1OCc1ccccc1` [Example 100], the melting point was 158 to 160 °C. Take `COc1cc(-c2cn3cc(Cl)cc(Cl)c3n2)ccc1OCc1ccc(C#N)cc1` [Example 81]: the melting point is 187 to 189 °C. The compound `COc1cc(-c2cn3ccsc3n2)ccc1OCc1ccc(Br)cc1` [Example 42] came in with a melting point of 134 to 136 °C. Then `COc1cc(-c2cn3cccc(OCc4ccccc4)c3n2)ccc1OCc1ccc(Br)cc1F` [Example 87], with 108 to 109 °C; and `COc1cc(-c2cnc3ccccn23)ccc1OCc1ccc(F)cc1` [Example 133], with 118 to 119 °C; and `COc1cc(-c2cn3cccc(C)c3n2)ccc1OCc1ccccc1` [Example 34], with 99 to 100 °C.

`COc1cc(-c2cn3cc(C)cc(Br)c3n2)ccc1OCc1ccc(Cl)cc1` [Example 64]: the melting point lay in the range of 136 to 138 °C.

`COc1cc(-c2cn3cc(Cl)cc(Cl)c3n2)ccc1OCc1ccc(Cl)cc1` [Example 80] showed a melting point of 162 to 163 °C.

In the case of `COc1cc(-c2cnc3ccccn23)ccc1OCc1ccc(C(F)(F)F)cc1` [Example 122], the melting point fell in the range of 133 to 135 °C. The compound `COc1cc(-c2cccc3nccn23)ccc1OCc1ccc(C#N)cc1` [Example 120] returned a melting point of 155 to 157 °C. `Oc1cc(-c2cn3ccccc3n2)ccc1OCc1ccccc1` [Example 59] gave a melting point of 169 to 171 °C. The compound `COc1cc(-c2cn3cccc(O)c3n2)ccc1OCc1ccc(Cl)cc1` [Example 90] registered a melting point of 220 to 222 °C.

`COC(=O)c1cc(-c2cn3ccccc3n2)ccc1OCc1ccccc1` [Example 47] returned a melting point of 179 to 181 °C. In the case of `COc1cc(-c2cn3cc(C)ccc3n2)ccc1OCc1ccc(C#N)cc1` [Example 57], the melting point lay in the range of 168 to 169 °C. In turn, `c1ccc(COc2ccc(-c3cn4ccccc4n3)cc2)cc1` [Example 13] came in with a melting point of 171 to 173 °C.

With `COc1cc(-c2nc3ccccn3c2C)ccc1OCc1ccc(C)cc1` [Example 27], the melting point lay in the range of 118 to 120 °C. The same measure for `COc1cc(-c2cn3c(C)cccc3n2)ccc1OCc1ccccc1` [Example 33]: 130 to 132 °C; for `Clc1ccc(COc2ccc(-c3cn4ccccc4n3)cc2)cc1` [Example 37]: 229 to 231 °C. As to `COc1cc(-c2cn3cccc(OC)c3n2)ccc1OCc1ccccc1` [Example 88], the melting point is 189 to 191 °C. Regarding `c1ccc(COc2ccc(-c3cn4ccccc4n3)cc2OCc2ccccc2)cc1` [Example 62], the melting point is 122 to 124 °C.

The compound `COc1cc(-c2cccc3nccn23)ccc1O` [Example 137] displayed a melting point of 177 to 178 °C. Then `COc1cc(-c2cn3ccccc3n2)ccc1OCc1ccc(F)cc1F` [Example 93], with 137 to 138 °C; and `COc1cc(-c2cn3cc(C(=O)O)ccc3n2)ccc1OCc1ccc(C#N)cc1` [Example 44], with 242 to 243 °C.

`CCOc1cc(-c2cn3ccccc3n2)ccc1OCc1ccc(Cl)cc1` [Example 68] gave a melting point of 136 to 137 °C. Compound `COc1cc(-c2cn3cc(C)ccc3n2)ccc1OCc1ccc(Br)cc1F` [Example 83] displayed a melting point of 147 to 148 °C. The same measure for `c1ccc(Oc2ccc(-c3cn4ccccc4n3)cc2)cc1` [Example 72]: 164 to 165 °C; for `COc1cc(-c2cn3cc(C(F)(F)F)cc(Cl)c3n2)ccc1OCc1ccccc1` [Example 53]: 155 to 156 °C. The same measure for `COc1cc(-c2nc3ccccn3c2Br)ccc1OCc1ccccc1` [Example 3]: 115 to 117 °C; for `COc1cc(-c2cn3ccccc3n2)ccc1OCc1cc(F)ccc1C(F)(F)F` [Example 8]: 125 to 126 °C. Consider `COc1cc(-c2nc3ccccn3c2Cl)ccc1OCc1cccc(F)c1` [Example 20], for which the melting point lay in the range of 104 to 105 °C. The same measure for `CCOc1cc(-c2cn3ccccc3n2)ccc1OCc1ccccc1` [Example 60]: 157 to 158 °C. The compound `COc1cc(-c2cn3cc(C)ccc3n2)ccc1OCc1ccc(Br)cc1` [Example 56] had a melting point of 155 to 157 °C. Then `COc1cc(-c2cn3ccccc3n2)ccc1OCc1ccc(Cl)c(Cl)c1` [Example 22], with 138 to 139 °C; and `COc1cc(-c2cn3ccccc3n2)ccc1O.Cl`, with 276 to 278 °C; and `COc1cc(-c2cn3cccc(C)c3n2)ccc1OCc1ccc(C#N)cc1` [Example 74], with 144 to 146 °C.

Compound `COc1cc(-c2cn3cc(C(=O)O)ccc3n2)ccc1OCc1ccc(Cl)cc1` [Example 45] gave a melting point of 251 to 253 °C. In the case of `COc1cc(-c2cn3cc(C)cc(Br)c3n2)ccc1OCc1ccccc1` [Example 63], the melting point lay within 136 to 137 °C. `COc1cc(-c2cn3cc(Cl)ccc3n2)ccc1OCc1ccccc1` [Example 18] returned a melting point of 177 to 179 °C. The compound `COc1ccc(COc2ccc(-c3cn4ccccc4n3)cc2OC)cc1` [Example 35] came in with a melting point of 165 to 167 °C. As to `COc1cc(-c2cn3cc(Br)ccc3n2)ccc1OCc1ccccc1` [Example 66], the melting point is 175 to 176 °C. Consider `COC(=O)c1ccc(COc2ccc(-c3cn4ccccc4n3)cc2OC)cc1` [Example 50], for which the melting point lay in the range of 125 to 126 °C. The same measure for `COc1cc(-c2c[nH]c(-c3ccccc3)n2)ccc1OCc1ccccc1` [Example 79]: 190 to 192 °C.

Compound `COc1cc(-c2cn3cc(C)ccc3n2)ccc1OCc1ccc(Cl)cc1` [Example 32] displayed a melting point of 140 to 142 °C.

The compound `COc1cc(-c2cn3ccsc3n2)ccc1OCc1ccc(C#N)cc1` [Example 48] gave a melting point of 179 to 181 °C. In turn, `COc1cc(-c2cn3ccccc3n2)ccc1OCc1ccc(F)cc1` [Example 6] gave a melting point of 144 to 146 °C. For `COc1cc(-c2cn3ccsc3n2)ccc1OCc1ccc(Br)cc1F` [Example 84], the melting point was in the range of 109 to 111 °C. `COc1cc(-c2cn3ccccc3n2)ccc1OCc1ccc(C(F)(F)F)cc1` [Example 7] gave a melting point of 172 to 173 °C. With `COc1cc(-c2nc3ccccn3c2Cl)ccc1OCc1ccc(Cl)cc1` [Example 19], the melting point was in the range of 139 to 140 °C. For `COc1cc(-c2cn3cc(Br)cc(C)c3n2)ccc1OCc1ccc(C#N)cc1` [Example 99], the melting point is 177 to 178 °C. The same measure for `COc1cc(-c2cn3cc(Br)cc(C)c3n2)ccc1OCc1ccc(Cl)cc1` [Example 69]: 155 to 156 °C. The compound `COc1cc(-c2cn3ccccc3n2)ccc1OCc1ccc(C(=O)O)cc1` [Example 51] yielded a melting point of 245 to 247 °C. Consider `COc1cc(-c2cn3cc(Br)c(C)c(C)c3n2)ccc1OCc1ccc(Cl)cc1` [Example 70], for which the melting point lay within 166 to 167 °C. For the compound `COc1cc(-c2cn3cc(Br)cc(C)c3n2)ccc1OCc1ccccc1` [Example 98], the melting point was 164 to 165 °C. `COc1cc(-c2cn3ccccc3n2)ccc1OCc1ccc(Cl)cc1Cl` [Example 92] had a melting point of 138 to 139 °C. In turn, `COc1cc(-c2cn3cccc(OCc4ccccc4)c3n2)ccc1OCc1ccc(Cl)cc1` [Example 75] had a melting point of 164 to 166 °C. Regarding `COc1ccc(COc2ccc(-c3cn4ccccc4n3)cc2)cc1` [Example 36], the melting point lay within 215 to 218 °C. `COc1cc(-c2cn3ccccc3n2)ccc1OCc1cccc(Cl)c1` [Example 21] registered a melting point of 114 to 115 °C. Regarding `COc1cc(-c2cn3ccccc3n2)ccc1OCc1cc(F)ccc1F` [Example 94], the melting point was 115 to 117 °C. In the case of `COc1cc(-c2nc3ccccc3[nH]2)ccc1OCc1ccc(Cl)cc1` [Example 77], the melting point lay within 204 to 206 °C. The compound `COc1cc(-c2cn3ccc(C)cc3n2)ccc1OCc1ccccc1` [Example 16] displayed a melting point of 171 to 173 °C.
